# Results reported in patent US20050048007A1, “Plaque reducing composition” (INOBYS LTD., priority 2000, published 2005).
# Experiments:
# Assay in all cases: MIC by serial dilutions in BHI broth (NCCLS)
# Format in all cases: cell-based
# A. viscosus = settings: Actinomyces viscosus, 37.5 degrees C., 24 hr, turbidity
# Text: (§1) Efficacy of this delivery system was shown as follows: 1. Minimum Inhibitory Concentration (MIC)
# (§2) High numbers of microorganisms inhabit the oral cavity. Aerobic and anerobic bacteria combine to produce plaque, the soft sticky film adhering to the surface of the teeth. These same bacteria produce sulfur compounds responsible for oral malodor. MIC studies are commonly used to evaluate the potential effectiveness of oral washes and rinses in reducing undesirable bacteria in the oral cavity.
# (§3) This […] study evaluates and compares the minimum inhibitory concentration at which two antimicrobial preparations (Solutions A & B) prevent the growth of oral microorganisms recognized as typical of those responsible for plaque and oral malodor formation. Solution A represents Example 1 (above); solution B, 0.1% chlorhexidine, represents a bench mark for efficacy, in that it is commonly accepted and used by oral care professionals to reduce plaque and malodor causing microbes.
# (§4) MICs were established using the method of serial dilutions in BHI broth as established by NCCLS (National Committee for Clinical Laboratory Standards). Viable isolates of select strains of oral microbes were obtained commercially and cultured for ongoing use in the study. Serial dilutions of each of the test solutions were added to test tubes containing cultures of each isolate in BHI broth. Tubes were incubated at 37.5 degrees C. for 24 hr. and evaluated for signs of microbial growth (turbidity). Blank tubes of BHI broth, with and without microbial inoculates, were concomitantly run as a control for process sterility and viability.
# K. pneumonia = settings: Klebsiella pneumoniae, 37.5 degrees C., 24 hr, turbidity
# Text: as §1, §2, §3, §4
# S. mutans = settings: Streptococcus mutans, 37.5 degrees C., 24 hr, turbidity
# Text: as §1, §2, §3, §4
# S. sanguinis = settings: Streptococcus sanguinis, 37.5 degrees C., 24 hr, turbidity
# Text: as §1, §2, §3, §4
# S. sobrinus = settings: Streptococcus sobrinus, 37.5 degrees C., 24 hr, turbidity
# Text: as §1, §2, §3, §4
# V. atypica = settings: 37.5 degrees C., 24 hr, turbidity
# Text: as §1, §2, §3, §4
structure (smiles),measurement,setting,value
"[H]/N=C(\N/C(=N/[H])NCCCCCCNC(=N)NC(=N)Nc1ccc(Cl)cc1)Nc1ccc(Cl)cc1 [0.1% CHX, chlorhexidine]",MIC,A. viscosus,320 µg/mL
same,MIC,K. pneumonia,650 µg/mL
same,MIC,S. mutans,320 µg/mL
same,MIC,S. sanguinis,80 µg/mL
same,MIC,S. sobrinus,80 µg/mL
same,MIC,V. atypica,160 µg/mL
